Laboratory results taken from patent publication US20250195530A1, “POLQ INHIBITORS” (ASTRAZENECA AB, priority 2022, published 2025).
Where two headings read alike, the source gives them in different places.

How the values were obtained:
DLD-1 BRCA2−/− cells = test: Homologous recombination synthetic lethal inhibition of proliferation, DLD-1 BRCA2-/- (Cell Titre Glo 3D); assay type: cell-based; conditions: 12 days; for IC50: Homo sapiens, DLD-1, 288 h
How it was run: (§1)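 Cells are seeded in RPMI 1640 (phenol red free, 10% FBS, GlutaMAX) onto pre-dosed compound (10 μM to 0.51 nM, three-fold). Plates are incubated at 37 °C, and medium plus compound are refreshed on day 6. Viability is read by CellTiter-Glo 3D at day 7 (DLD-1) or day 12 (DLD-1 BRCA2−/−), and the IC50 is fitted.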

DLD-1 cells = test: Inhibition of proliferation, DLD-1 BRCA2 wt control (Cell Titre Glo 3D); assay type: cell-based; conditions: 7 days; for IC50: Homo sapiens, DLD-1, 168 h
How it was run: as §1

[1] = DLD-1 BRCA2−/−, Cell Titre Glo 3D, read-out: POLQ PD Prolif Lumin BRCA2 −/− Mean pIC50 (converted)
[2] = DLD-1 (BRCA2 wt control), Cell Titre Glo 3D, read-out: POLQ PD Prolif Lumin DLD1 Mean pIC50 (converted)
[3] = DLD-1 BRCA2 wt cells, read-out: POLQ PD Prolif Lumin DLD1 mean pIC50 (converted)
[4] = DLD-1 BRCA2−/− cells, read-out: POLQ PD Prolif Lumin BRCA2 −/− mean pIC50 (converted)

Compound | IC50 (DLD-1 cells; [3]) | IC50 (DLD-1 BRCA2−/− cells; [4]) | other results
C[C@H](CCOc1ccc(-c2nc3c(OC4(C)CC4)ncnc3n2Cc2cccc(Cl)c2)c(Cl)c1)C(=O)O (single isomer, unassigned; isomer 1) [Example 34, 4-(3-Chloro-4-(9-(3-chlorobenzyl)-6-(1-methylcyclopropoxy)-9H-purin-8-yl)phenoxy)-2-methylbutanoic acid (Isomer 1)] | – | – | IC50 (DLD-1 BRCA2−/− cells; [1]): 200 nM; IC50 (DLD-1 cells; [2]): > 10000 nM
COc1ccc(Cl)cc1Cn1c(-c2cccc(OC[C@@H](C)CC(=O)O)c2Cl)nc2c(OC3(C)CC3)ncnc21 (single isomer, unassigned; isomer 1) [Example 50, 4-(2-Chloro-3-(9-(5-chloro-2-methoxybenzyl)-6-(1-methylcyclopropoxy)-9H-purin-8-yl)phenoxy)-3-methylbutanoic acid (isomer 1)] | – | – | IC50 (DLD-1 BRCA2−/− cells; [1]): 6.31 nM; IC50 (DLD-1 cells; [2]): > 10000 nM
CC(c1cc(Cl)ccn1)n1c(-c2ccc(OCCN3CCNCC3)cc2Cl)nc2c(OC3(C)CC3)ncnc21 (single isomer, unassigned; isomer 1) [Example S6, 8-(2-chloro-4-(2-(piperazin-1-yl)ethoxy)phenyl)-9-(1-(4-chloropyridin-2-yl)ethyl)-6-(1-methylcyclopropoxy)-9H-purine (Isomer 1)] | – | – | POLQ PD Prolif Lumin BRCA2 −/− mean pIC50 (DLD-1 BRCA2−/− cells; DLD-1 BRCA2−/− cells): 6.5; POLQ PD Prolif Lumin DLD1 mean pIC50 (DLD-1 cells; DLD-1 BRCA2 wt cells): <5.0
C[C@@H](CCOc1ccc(-c2nc3c(OC4(C)CC4)ncnc3n2Cc2cccc(Cl)c2)c(Cl)c1)C(=O)O (single isomer, unassigned; isomer 2) [Example 35, 4-(3-Chloro-4-(9-(3-chlorobenzyl)-6-(1-methylcyclopropoxy)-9H-purin-8-yl)phenoxy)-2-methylbutanoic acid (Isomer 2)] | – | – | IC50 (DLD-1 BRCA2−/− cells; [1]): 126 nM; IC50 (DLD-1 cells; [2]): > 10000 nM
COc1ccc(Cl)cc1Cn1c(-c2cccc(OC[C@H](C)CC(=O)O)c2Cl)nc2c(OC3(C)CC3)ncnc21 (single isomer, unassigned; isomer 2) [Example 51, 4-(2-Chloro-3-(9-(5-chloro-2-methoxybenzyl)-6-(1-methylcyclopropoxy)-9H-purin-8-yl)phenoxy)-3-methylbutanoic acid (isomer 2)] | – | – | IC50 (DLD-1 BRCA2−/− cells; [1]): 7.94 nM; IC50 (DLD-1 cells; [2]): > 10000 nM
CC(c1cc(Cl)ccn1)n1c(-c2ccc(OCCN3CCNCC3)cc2Cl)nc2c(OC3(C)CC3)ncnc21 (single isomer, unassigned; isomer 2) [Example S5, 8-(2-chloro-4-(2-(piperazin-1-yl)ethoxy)phenyl)-9-(1-(4-chloropyridin-2-yl)ethyl)-6-(1-methylcyclopropoxy)-9H-purine (Isomer 2)] | > 10000 nM | – | POLQ PD Prolif Lumin BRCA2 −/− mean pIC50 (DLD-1 BRCA2−/− cells; DLD-1 BRCA2−/− cells): 6.1
Cc1cc(OCCN2CCN(C)CC2)ccc1-c1nc2c(OC(C)C)ncnc2n1Cc1ccccc1 [Example 1, 9-Benzyl-6-isopropoxy-8-(2-methyl-4-(2-(4-methylpiperazin-1-yl)ethoxy)phenyl)-9H-purine] | 6310 nM | 631 nM | –
CC(C)Oc1ccc2c(c1)nc(-c1ccc(OCCCN)cc1Cl)n2Cc1ccccc1 [Example 3, 3-(4-(1-Benzyl-5-isopropoxy-1H-benzo[d]imidazol-2-yl)-3-chlorophenoxy)propan-1-amine] | 1580 nM | 1000 nM | –
CN1CCN(CCOc2ccc(-c3nc4c(OC5(C)CC5)ncnc4n3Cc3ccccc3)c(Cl)c2)CC1 [Example 4, 9-Benzyl-8-(2-chloro-4-(2-(4-methylpiperazin-1-yl)ethoxy)phenyl)-6-(1-methylcyclopropoxy)-9H-purine] | 3980 nM | 63.1 nM | –
CN1CCC(COc2ccc(-c3nc4c(OC5(C)CC5)ncnc4n3Cc3ccccc3)c(Cl)c2)CC1 [Example 5, 9-Benzyl-8-(2-chloro-4-((1-methylpiperidin-4-yl)methoxy)phenyl)-6-(1-methylcyclopropoxy)-9H-purine] | 3160 nM | 50.1 nM | –
CC1(Oc2ncnc3c2nc(-c2ccc(OCCN4CCNCC4)cc2Cl)n3Cc2ccccc2)CC1 [Example 6, 9-Benzyl-8-(2-chloro-4-(2-(piperazin-1-yl)ethoxy)phenyl)-6-(1-methylcyclopropoxy)-9H-purine] | 3980 nM | 158 nM | –
Cc1nc(Cn2c(-c3ccc(OCCN4CCN(C)CC4)cc3Cl)nc3c(OC4(C)CC4)ncnc32)cs1 [Example 7, 4-((8-(2-Chloro-4-(2-(4-methylpiperazin-1-yl)ethoxy)phenyl)-6-(1-methylcyclopropoxy)-9H-purin-9-yl)methyl)-2-methylthiazole] | > 10000 nM | 794 nM | –
CC(C)Oc1ccc2c(n1)nc(-c1ccc(OCCN3CCNCC3)cc1Cl)n2Cc1ccccc1 [Example 8, 1-Benzyl-2-(2-chloro-4-(2-(piperazin-1-yl)ethoxy)phenyl)-5-isopropoxy-1H-imidazo[4,5-b]pyridine] | 3160 nM | 1000 nM | –
CC(C)Oc1nccc2c1nc(-c1ccc(OCCN3CCNCC3)cc1Cl)n2Cc1ccccc1 [Example 9, 1-benzyl-2-(2-chloro-4-(2-(piperazin-1-yl)ethoxy)phenyl)-4-isopropoxy-1H-imidazo[4,5-c]pyridine] | 2510 nM | 631 nM | –
CC1(Oc2ncnc3c2nc(-c2ccc(OCCN4CCNCC4)cc2Cl)n3Cc2cc(Cl)ccn2)CC1 [Example 10, 8-(2-Chloro-4-(2-(piperazin-1-yl)ethoxy)phenyl)-9-((4-chloropyridin-2-yl)methyl)-6-(1-methylcyclopropoxy)-9H-purine] | > 10000 nM | 200 nM | –
CC(C)(Oc1ncnc2c1nc(-c1ccc(OCCN3CCNCC3)cc1Cl)n2Cc1ccccc1)C(F)(F)F [Example 11, 9-Benzyl-8-(2-chloro-4-(2-(piperazin-1-yl)ethoxy)phenyl)-6-((1,1,1-trifluoro-2-methylpropan-2-yl)oxy)-9H-purine] | 794 nM | 251 nM | –
CC1(Oc2ncnc3c2nc(-c2ccc(OCCN4CCNCC4)cc2Cl)n3Cc2ccccc2)CCC1 [Example 12, 9-Benzyl-8-(2-chloro-4-(2-(piperazin-1-yl)ethoxy)phenyl)-6-(1-methylcyclobutoxy)-9H-purine] | 2000 nM | 126 nM | –
N#CC1(Oc2ncnc3c2nc(-c2ccc(OCCN4CCNCC4)cc2Cl)n3Cc2ccccc2)CC1 [Example 13, 1-((9-Benzyl-8-(2-chloro-4-(2-(piperazin-1-yl)ethoxy)phenyl)-9H-purin-6-yl)oxy)cyclopropane-1-carbonitrile] | > 10000 nM | 251 nM | –
CC1(Oc2ccnc3c2nc(-c2ccc(OCCN4CCNCC4)cc2Cl)n3Cc2cc(Cl)ccn2)CC1 [Example 14, 2-(2-Chloro-4-(2-(piperazin-1-yl)ethoxy)phenyl)-3-((4-chloropyridin-2-yl)methyl)-7-(1-methylcyclopropoxy)-3H-imidazo[4,5-b]pyridine] | > 10000 nM | 251 nM | –
CC1(Oc2cccc3c2nc(-c2ccc(OCCN4CCNCC4)cc2Cl)n3Cc2cc(Cl)ccn2)CC1 [Example 15, 2-(2-chloro-4-(2-(piperazin-1-yl)ethoxy)phenyl)-1-((4-chloropyridin-2-yl)methyl)-4-(1-methylcyclopropoxy)-1H-benzo[d]imidazole] | 6310 nM | 251 nM | –
CC1(Oc2nccc3c2nc(-c2ccc(OCCN4CCNCC4)cc2Cl)n3Cc2cc(Cl)ccn2)CC1 [Example 16, 2-(2-chloro-4-(2-(piperazin-1-yl)ethoxy)phenyl)-1-((4-chloropyridin-2-yl)methyl)-4-(1-methylcyclopropoxy)-1H-imidazo[4,5-c]pyridine] | > 10000 nM | 398 nM | –
CN(C)CCCOc1ccc(-c2nc3c(OC4(C)CC4)ncnc3n2Cc2cc(Cl)ccn2)c(Cl)c1 [Example 17, 3-(3-Chloro-4-(9-((4-chloropyridin-2-yl)methyl)-6-(1-methylcyclopropoxy)-9H-purin-8-yl)phenoxy)-N,N-dimethylpropan-1-amine] | > 10000 nM | 79.4 nM | –
CC1(Oc2ncnc3c2nc(-c2ccc(OCCN4CC5(CNC5)C4)cc2Cl)n3Cc2ccccc2)CC1 [Example 18, 8-(4-(2-(2,6-Diazaspiro[3.3]heptan-2-yl)ethoxy)-2-chlorophenyl)-9-benzyl-6-(1-methylcyclopropoxy)-9H-purine] | 5010 nM | 398 nM | –
Cc1cc(N2CC(N)C2)ncc1-c1nc2c(OC3(C)CC3)ncnc2n1Cc1ccccc1 [Example 19, 1-(5-(9-Benzyl-6-(1-methylcyclopropoxy)-9H-purin-8-yl)-4-methylpyridin-2-yl)azetidin-3-amine] | > 10000 nM | 501 nM | –
CN1CCN(CCOc2cc(Cl)c(-c3nc4c(OC5(C)CC5)ncnc4n3Cc3ccccc3)cn2)CC1 [Example 20, 9-Benzyl-8-(4-chloro-6-(2-(4-methylpiperazin-1-yl)ethoxy)pyridin-3-yl)-6-(1-methylcyclopropoxy)-9H-purine] | 7940 nM | 398 nM | –
Cc1cc(OCCN2CCCC2)ncc1-c1nc2c(OC3(C)CC3)ncnc2n1Cc1ccccc1 [Example 21, 9-Benzyl-8-(4-methyl-6-(2-(pyrrolidin-1-yl)ethoxy)pyridin-3-yl)-6-(1-methylcyclopropoxy)-9H-purine] | > 10000 nM | 398 nM | –
Cc1c(OCCN2CCNCC2)cncc1-c1nc2c(OC3(C)CC3)ncnc2n1Cc1ccccc1 [Example 22, 9-Benzyl-8-(4-methyl-5-(2-(piperazin-1-yl)ethoxy)pyridin-3-yl)-6-(1-methylcyclopropoxy)-9H-purine] | > 10000 nM | 631 nM | –
